Results from patent publication US20240150377A1, “MODULATORS OF CYSTIC FIBROSIS TRANSMEMBRANE CONDUCTANCE REGULATOR” (VERTEX PHARMACEUTICALS INCORPORATED, priority 2020, published 2024).
Read-outs that look alike come from different tables or passages of the source.

Target: CFTR (Homo sapiens, UniProt P13569)
Experiment: Membrane potential dye, Enteroid Assay A
Assay type: cell-based
Details: for Ent. A Max Activity: chloride transport as % of triple combination control (Enteroid Assay A); for EC50: human enteroid cells, 18-24 hours, acute 10 μM forskolin and 300 nM ivacaftor, read-out: Ent. A EC50
Protocol: Base medium (ADF+++) consisted of Advanced DMEM/Ham's F12, 2 mM Glutamax, 10 mM HEPES, […] penicillin/streptomycin.
Intestinal enteroid maintenance medium (IEMM) consisted of ADF+++, 1× B27 supplement, 1× N2 supplement, 1.25 mM N-acetyl cysteine, 10 mM Nicotinamide, 50 ng/mL hEGF, 10 nM Gastrin, 1 μg/mL hR-spondin-1, 100 ng/mL hNoggin, TGF-b type 1 inhibitor A-83-01, 100 μg/mL Primocin, 10 μM P38 MAPK inhibitor SB202190.
Bath 1 Buffer consisted of 1 mM MgCl2, 160 mM NaCl, 4.5 mM KCl, 10 mM HEPES, 10 mM Glucose, 2 mM CaCl2).
Chloride Free Buffer consisted of 1 mM Magnesium Gluconate, 2 mM Calcium Gluconate, 4.5 mM Potassium Gluconate, 160 mM Sodium Gluconate, 10 mM HEPES, 10 mM Glucose.
BathI Dye Solution consisted of Bath 1 Buffer, 0.04% Pluronic F127, 20 μM Methyl Oxonol, 30 μM CaCCinh-A01, 30 μM Chicago Sky Blue.
Chloride Free Dye Solution consisted of Chloride Free Buffer, 0.04% Pluronic F127, 20 μM Methyl Oxonol, 30 μM CaCCinh-A01, 30 μM Chicago Sky Blue.
Chloride Free Dye Stimulation Solution consisted of Chloride Free Dye Solution, 10 μM forskolin, 100 μM IBMX, and 300 nM Compound III.
Human intestinal epithelial enteroid cells were obtained from the Hubrecht Institute for Developmental Biology and Stem Cell Research, Utrecht, The Netherlands and expanded in T-Flasks as previously described (Dekkers J F, Wiegerinck C L, de Jonge H R, Bronsveld I, Janssens H M, de Winter-de Groot K M, Brandsma A M, de Jong N W M, Bijvelds M J C, Scholte B J, Nieuwenhuis E E S, van den Brink S, Clevers H, van der Ent C K, Middendorp S and M Beekman J M. A functional CFTR assay using primary cystic fibrosis intestinal organoids. Nat Med. 2013 July;19(7):939-45.).
3. Enteroid Cell Harvesting and Seeding
Cells were recovered in cell recovery solution, collected by centrifugation at 650 rpm for 5 min at 4° C., resuspended in TrypLE and incubated for 5 min at 37° C. Cells were then collected by centrifugation at 650 rpm for 5 min at 4° C. and resuspended in IEMM containing 10 μM ROCK inhibitor (RI). The cell suspension was passed through a 40 μm cell strainer and resuspended at 1×10^6 cells/mL in IEMM containing 10 μM RI. Cells were seeded at 5000 cells/well into multi-well plates and incubated for overnight at 37° C., 95% humidity and 5% CO2 prior to assay.
4. Membrane Potential Dye, Enteroid Assay A
Enteroid cells were incubated with test compound in IEMM for 18-24 hours at 37° C., 95% humidity and 5% CO2. […] Briefly, cells were washed 5 times in Bath 1 Buffer. Bath 1 Dye Solution was added, and the cells were incubated for 25 min at room temperature. Following dye incubation, cells were washed 3 times in Chloride Free Dye Solution. Chloride transport was initiated by addition of Chloride Free Dye Stimulation Solution and the fluorescence signal was read for 15 min. […] Chloride transport was then expressed as a percentage of the chloride transport following treatment with 3 μM N-[(6-amino-2-pyridyl)sulfonyl]-6-(3-fluoro-5-isobutoxy-phenyl)-2-[(4S)-2,2,4-trimethylpyrrolidin-1-yl]pyridine-3-carboxamide, 3 μM (R)-1-(2,2-difluorobenzo[d][1,3]dioxol-5-yl)-N-(1-(2,3-dihydroxypropyl)-6-fluoro-2-(1-hydroxy-2-methylpropan-2-yl)-1H-indol-5-yl)cyclopropanecarboxamide and 300 nM acute N-[2,4-bis(1,1-dimethylethyl)-5-hydroxyphenyl]-1,4-dihydro-4-oxoquinoline-3-carboxamide triple combination control (% Activity).

CFTR, sequence (P13569 with tags, fused parts or gaps DEL508-508): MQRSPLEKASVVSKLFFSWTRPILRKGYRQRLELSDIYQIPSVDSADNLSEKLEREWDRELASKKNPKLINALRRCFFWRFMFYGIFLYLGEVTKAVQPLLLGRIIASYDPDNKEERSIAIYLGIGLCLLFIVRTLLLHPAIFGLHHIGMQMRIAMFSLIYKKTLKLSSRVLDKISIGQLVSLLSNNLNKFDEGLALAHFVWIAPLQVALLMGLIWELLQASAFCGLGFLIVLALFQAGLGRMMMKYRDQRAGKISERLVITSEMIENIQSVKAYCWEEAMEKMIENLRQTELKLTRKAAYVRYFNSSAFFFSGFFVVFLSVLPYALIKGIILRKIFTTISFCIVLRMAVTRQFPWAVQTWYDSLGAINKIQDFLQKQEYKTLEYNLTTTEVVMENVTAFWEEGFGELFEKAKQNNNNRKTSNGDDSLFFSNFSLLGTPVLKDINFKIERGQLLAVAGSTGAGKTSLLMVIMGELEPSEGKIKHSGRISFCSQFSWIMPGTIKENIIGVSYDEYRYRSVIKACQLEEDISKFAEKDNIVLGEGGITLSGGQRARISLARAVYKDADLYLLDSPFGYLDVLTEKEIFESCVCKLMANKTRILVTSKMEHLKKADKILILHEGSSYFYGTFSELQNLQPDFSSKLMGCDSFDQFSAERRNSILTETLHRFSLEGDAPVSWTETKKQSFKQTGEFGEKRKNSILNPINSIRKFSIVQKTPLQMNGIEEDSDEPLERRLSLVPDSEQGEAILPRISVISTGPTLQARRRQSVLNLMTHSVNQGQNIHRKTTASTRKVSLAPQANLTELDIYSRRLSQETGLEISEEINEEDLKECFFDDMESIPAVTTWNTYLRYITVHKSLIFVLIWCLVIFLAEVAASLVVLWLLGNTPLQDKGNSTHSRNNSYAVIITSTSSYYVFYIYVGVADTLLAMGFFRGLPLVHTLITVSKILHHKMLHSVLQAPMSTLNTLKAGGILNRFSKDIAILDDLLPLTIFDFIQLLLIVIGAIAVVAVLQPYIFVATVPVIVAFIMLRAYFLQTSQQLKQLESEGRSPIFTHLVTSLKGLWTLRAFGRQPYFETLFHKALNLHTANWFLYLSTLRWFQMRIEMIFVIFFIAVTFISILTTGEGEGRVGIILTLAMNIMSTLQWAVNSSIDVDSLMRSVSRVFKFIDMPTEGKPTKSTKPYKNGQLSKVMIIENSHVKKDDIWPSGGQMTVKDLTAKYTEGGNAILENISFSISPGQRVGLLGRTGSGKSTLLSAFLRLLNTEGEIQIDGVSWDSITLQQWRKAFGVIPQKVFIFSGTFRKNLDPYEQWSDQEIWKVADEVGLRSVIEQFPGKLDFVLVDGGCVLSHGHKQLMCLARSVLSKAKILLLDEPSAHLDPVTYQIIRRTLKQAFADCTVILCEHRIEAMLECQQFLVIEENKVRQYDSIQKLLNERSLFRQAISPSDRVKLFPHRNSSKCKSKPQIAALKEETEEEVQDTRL

| SMILES | Ent. A Max Activity (Table 7) | EC50 (Table 7) | Ent. A Max Activity (Table 6) | EC50 (Table 6) |
| --- | --- | --- | --- | --- |
| Cc1cccc(C)c1-c1cc2nc(n1)NS(=O)(=O)c1cccc(c1)C(=O)N(CC1CC3(CCN(C)CC3)C1)[C@H](CC(C)C)CO2 [Compound 89, (11R)-6-(2,6-Dimethylphenyl)-11-isobutyl-12-[(7-methyl-7-azaspiro[3.5]nonan-2-yl)methyl]-2,2-dioxo-9-oxa-2λ^6-thia-3,5,12,19-tetrazatricyclo[12.3.1.14,8]nonadeca-1(18),4(19),5,7,14,16-hexaen-13-one] | +++ (+++ is >60%) | < 1000 nM | – | – |
| CC(=O)N1CCC2(CC1)CC(CN1C(=O)c3cccc(c3)S(=O)(=O)Nc3nc(cc(-c4c(C)cccc4C)n3)OC[C@H]1CC(C)C)C2 [Compound 90, (11R)-12-[(7-Acetyl-7-azaspiro[3.5]nonan-2-yl)methyl]-6-(2,6-dimethylphenyl)-11-isobutyl-2,2-dioxo-9-oxa-2λ^6-thia-3,5,12,19-tetrazatricyclo[12.3.1.14,8]nonadeca-1(18),4(19),5,7,14,16-hexaen-13-one] | +++ (+++ is >60%) | < 1000 nM | – | – |
| CNC(=O)c1ccc(CN2C(=O)c3cccc(c3)S(=O)(=O)Nc3nc(cc(-c4c(C)cccc4C)n3)OC[C@H]2CC(C)C)cn1 [Compound 93, 5-{[(11R)-6-(2,6-dimethylphenyl)-11-(2-methylpropyl)-2,2,13-trioxo-9-oxa-2λ^6-thia-3,5,12,19-tetraazatricyclo[12.3.1.14,8]nonadeca-1(18),4(19),5,7,14,16-hexaen-12-yl]methyl}-N-methylpyridine-2-carboxamide] | +++ (+++ is >60%) | < 1000 nM | – | – |
| Cc1cccc(C)c1-c1cc2nc(n1)NS(=O)(=O)c1cccc(c1)C(=O)N(Cc1ccc(C(=O)O)nc1)[C@H](CC(C)C)CO2 [Compound 94, 5-{[(11R)-6-(2,6-dimethylphenyl)-11-(2-methylpropyl)-2,2,13-trioxo-9-oxa-2λ^6-thia-3,5,12,19-tetraazatricyclo[12.3.1.14,8]nonadeca-1(18),4(19),5,7,14,16-hexaen-12-yl]methyl}pyridine-2-carboxylic acid] | +++ (+++ is >60%) | 1000 to 3000 nM | – | – |
| COC(=O)c1ccc(CN2C(=O)c3cccc(c3)S(=O)(=O)Nc3nc(cc(-c4c(C)cccc4C)n3)OC[C@H]2CC(C)C)cn1 [Compound 95, Methyl 5-{[(11R)-6-(2,6-Dimethylphenyl)-11-(2-methylpropyl)-2,2,13-trioxo-9-oxa-2λ^6-thia-3,5,12,19-tetraazatricyclo[12.3.1.14,8]nonadeca-1(18),4(19),5,7,14,16-hexaen-12-yl]methyl}pyridine-2-carboxylate] | +++ (+++ is >60%) | < 1000 nM | – | – |
| Cc1cccc(C)c1-c1cc2nc(n1)NS(=O)(=O)c1cccc(c1)C(=O)N(C)CC(CN(CCC(C)(C)C)CCC(C)(C)C)O2 (stereo not shown) [Compound 98, 10-[[bis(3,3-Dimethylbutyl)amino]methyl]-6-(2,6-dimethylphenyl)-12-methyl-2,2-dioxo-9-oxa-2λ^6-thia-3,5,12,19-tetrazatricyclo[12.3.1.14,8]nonadeca-1(18),4(19),5,7,14,16-hexaen-13-one] | – | – | +++ (+++ is >60%) | < 1000 nM |
| Cc1cccc(C)c1-c1cc2nc(n1)NS(=O)(=O)c1cccc(c1)C(=O)N(C)[C@H](CC(C)C)C(c1ccccn1)O2 (stereo partly shown) [Compound 337] | +++ (+++ is >60%) | < 1000 nM | – | – |
| Cc1cccc(C)c1-c1cc2nc(n1)NS(=O)(=O)c1cccc(c1)C(=O)N(CCC(C)C)CC(c1ccc(C(C)(C)C)cc1)O2 (stereo not shown) [Compound 341] | – | – | ++ (++ is 30-60%) | 1000 to 3000 nM |
| Cc1cccc(C)c1-c1cc2nc(n1)NS(=O)(=O)c1cccc(c1)C(=O)N(CCC1CCOCC1)CC(c1ccc(C(C)(C)C)cc1)O2 (stereo not shown) [Compound 342] | – | – | +++ (+++ is >60%) | < 1000 nM |
| Cc1ccccc1-c1cc2nc(n1)NS(=O)(=O)c1cccc(c1)C(=O)N(C)[C@H](CC(C)C)[C@H](c1ccc(C(C)(C)C)cn1)O2 [Compound 343] | – | – | +++ (+++ is >60%) | < 1000 nM |
| Cc1cccc(C)c1-c1cc2nc(n1)NS(=O)(=O)c1cccc(c1)C(=O)N(CC1CCCN1)[C@H](CC(C)C)CO2 (stereo partly shown) [Compound 344] | – | – | +++ (+++ is >60%) | < 1000 nM |
| Cc1cccc(C)c1-c1cc2nc(n1)NS(=O)(=O)c1cccc(c1)C(=O)N(Cc1ccnn1C)[C@H](CC(C)C)CO2 [Compound 345] | – | – | +++ (+++ is >60%) | < 1000 nM |
| Cc1cccc(C)c1-c1cc2nc(n1)NS(=O)(=O)c1cccc(c1)C(=O)N(CC1CCCN1C(=O)OC(C)(C)C)[C@H](CC(C)C)CO2 (stereo partly shown) [Compound 346] | – | – | +++ (+++ is >60%) | < 1000 nM |
| COc1cccc(CN2C(=O)c3cccc(c3)S(=O)(=O)Nc3nc(cc(-c4c(C)cccc4C)n3)OC[C@H]2CC(C)C)c1 [Compound 348] | – | – | +++ (+++ is >60%) | < 1000 nM |
| COc1ccccc1CN1C(=O)c2cccc(c2)S(=O)(=O)Nc2nc(cc(-c3c(C)cccc3C)n2)OC[C@H]1CC(C)C [Compound 349] | – | – | +++ (+++ is >60%) | < 1000 nM |
| Cc1cccc(C)c1-c1cc2nc(n1)NS(=O)(=O)c1cccc(c1)C(=O)N(CC1CCCC1)[C@H](CC(C)C)CO2 [Compound 350] | – | – | +++ (+++ is >60%) | < 1000 nM |
| Cc1cccc(C)c1-c1cc2nc(n1)NS(=O)(=O)c1cccc(c1)C(=O)N(CC1CC3C=C[C@@H]1C3)[C@H](CC(C)C)CO2 (stereo partly shown) [Compound 351] | – | – | +++ (+++ is >60%) | < 1000 nM |
| Cc1cccc(C)c1-c1cc2nc(n1)NS(=O)(=O)c1cccc(c1)C(=O)N(CC1CCOCC1)[C@H](CC(C)C)CO2 [Compound 352] | – | – | +++ (+++ is >60%) | < 1000 nM |
| Cc1cccc(C)c1-c1cc2nc(n1)NS(=O)(=O)c1cccc(c1)C(=O)N(CCCn1cccn1)[C@H](CC(C)C)CO2 [Compound 354] | – | – | +++ (+++ is >60%) | < 1000 nM |
| Cc1cccc(C)c1-c1cc2nc(n1)NS(=O)(=O)c1cccc(c1)C(=O)N(CCc1ccccc1)[C@H](CC(C)C)CO2 [Compound 355] | – | – | +++ (+++ is >60%) | < 1000 nM |
| Cc1ccccc1CN1C(=O)c2cccc(c2)S(=O)(=O)Nc2nc(cc(-c3c(C)cccc3C)n2)OC[C@H]1CC(C)C [Compound 356] | – | – | +++ (+++ is >60%) | < 1000 nM |
| Cc1cccc(C)c1-c1cc2nc(n1)NS(=O)(=O)c1cccc(c1)C(=O)N(CC1CCOC1)[C@H](CC(C)C)CO2 (stereo partly shown) [Compound 357] | – | – | +++ (+++ is >60%) | < 1000 nM |
| Cc1cccc(C)c1-c1cc2nc(n1)NS(=O)(=O)c1cccc(c1)C(=O)N(CCC1CCCCC1)[C@H](CC(C)C)CO2 [Compound 358] | – | – | +++ (+++ is >60%) | < 1000 nM |
| Cc1cccc(C)c1-c1cc2nc(n1)NS(=O)(=O)c1cccc(c1)C(=O)N(CCCC(=O)O)[C@H](CC(C)C)CO2 [Compound 359] | – | – | ++ (++ is 30-60%) | 3000 to 30000 nM |
| Cc1cccc(C)c1-c1cc2nc(n1)NS(=O)(=O)c1cccc(c1)C(=O)N(CC1CCN(C)CC1)[C@H](CC(C)C)CO2 [Compound 360] | – | – | +++ (+++ is >60%) | 1000 to 3000 nM |
| Cc1cccc(C)c1-c1cc2nc(n1)NS(=O)(=O)c1cccc(c1)C(=O)N(Cc1cccnc1)[C@H](CC(C)C)CO2 [Compound 364] | – | – | +++ (+++ is >60%) | < 1000 nM |
